Data set [1] concerns ct-DNA. The data set is described as follows: Competitive displacement of Hoechst 33258 from DNA (fluorescence). The format is binding, calf. As to conditions: Hoechst 33258 1.9 µM, [DNA]b = 30 µM, compound 0-50 µM, 1 h. On the procedure: (§1) For the UV–Vis, fluorescence and circular dichroism assays the concentration of ct-DNA was determined on a Varian Cary 100 Scan spectrophotometer from the absorption at 260 nm and the corresponding molar absorptivity of 6600 M^−1 cm^−1 (nucleobase concentration). The stock solutions of the coordination compounds and the free ligands were prepared in cacodylate/NaCl buffer (1 mM cacodylic acid and 20 mM sodium chloride) at pH 7.25. The final samples contained a DMSO concentration of 0.2%.
Emission intensity of the dyes DNA-intercalator ethidium bromide, EB (λexc = 514 nm) and the minor-groove binder Hoechst 33,258 (λexc = 350 nm) was measured on iHR320 HORIBA JOBIN YVON spectrofluorometer. The samples contained 15 µM (in base pairs) of ct-DNA and 75 µM of EB […] in cacodylate/NaCl buffer. The respective dye was incubated for 30 min with ct-DNA to allow its binding to the biomolecule. Subsequently, increasing amounts of coordination compounds (0–50 µM) were added up to a final volume of 2 mL, and the samples were incubated for 1 h at 37 °C. The fluorescence spectra of all samples were recorded at room temperature. The affinity of the compounds for ct-DNA compared to EB was evaluated through the Stern–Volmer quenching constant Ksv, from Eq. 3:3 I0/I=1+Ksvcompound where I0 and I are the emission intensities in absence and the presence of the compound, respectively.
Competitive binding assays were carried out with Hoechst 33,258. This dye binds to B-DNA, especially those with an AT-rich sequence giving a fluorescent signal at 458 nm when excited at 350 nm. As for to the EB assays, DNA (30 µM) was incubated for 30 min with Hoechst 33,258 (1.9 µM) and increasing amounts of the coordination compounds were subsequently added. In all cases, fluorescence quenching was observed (Fig. 9). As previously, the Ksv constants were determined (Fig. 9c and Table 4). The copper(II) compounds show Ksv values in the […] range (Table 4), indicating a groove binding behavior. For the zinc(II) compounds, the Ksv values are two orders of magnitude lower indicating weaker interactions, must likely of electrostatic nature.

Data set [2] concerns ct-DNA. The data set is described as follows: Circular dichroism of ct-DNA. It counts as binding, calf. As to conditions: [DNA]b = 50 µM, [complex]/[DNA] 0-2, 1 h 37 °C. On the procedure: as §1
Circular dichroism (CD) spectra were recorded using a JASCO-815 spectropolarimeter, equipped with xenon-arc lamp of 450 W. The sample compartment was air-purged with N2 before use. For the measurements, a quartz cuvette with an optical path of 5 mm was used. A solution of 25 µM (in base pairs) of ct-DNA in cacodylate/NaCl buffer was incubated for 1 h at 37 °C with increasing amounts of coordination compounds (0–50 µM). The CD spectra were recorded at room temperature.
The interaction of small molecules with DNA can modify these CD signals depending on the type of binding. Intercalative interactions increase the intensity of the signals, as the result of an increase of the stability of the B conformation, whereas groove binding or covalent interactions tend to decrease the intensity of these signals, which are moreover displaced. The CD spectra for both ligands and their copper(II) and zinc(II) complexes were obtained at constant concentration of ct-DNA, increasing the complex concentration up to two equivalents ([complex]/[DNA] ratios of 0, 0.2, 0.4, 1, 2) with respect to the nucleobases concentration ([DNA]b = 50 µM).
On the technique in general: Circular dichroism is widely used to follow secondary structure.

Data set [3] in a line: Distribution coefficient LogD7.4, shake-flask 1-octanol/MOPS buffer. It counts as physicochemical. As to conditions: octanol/water (MOPS buffer 10^–2 M), 25 °C, 3 h. The protocol: Solutions between 100 and 10 µM of the free ligands (cenz and onz) and the coordination compounds 3–10 were prepared in a MOPS buffer pH 7.4 as the aqueous phase and in 1-octanol as the organic phase. The absorption at 320 nm and 310 nm was determined for the aqueous and organic phase respectively by electronic spectroscopy (UV–Vis). Through a linear regression (concentration vs. absorption) the molar extinction coefficient of each compound in both phases was determined (Table 3). The lipophilicity was calculated in the 1-octanol/water system from the shake flask method using Eq. 1 [39]:1 […] where, Co is the final concentration in the organic phase and Cw is the final concentration in the aqueous phase (MOPS buffer at 10^–2 M pH 7.4). Both phases were presaturated with 50 µM solutions of the free ligands or 500 µM of each coordination compound and their UV spectrum was recorded. Both phases were combined and kept stirring for 3 h at 25 °C and in the absence of light. Subsequently, the mixture was centrifuged at 400g and the concentration in both phases was determined by UV–Vis spectroscopy using the Beer-Lambert law. The assays were performed in triplicate.
The T gondii parasite is an apicomplex organism; it requires a host cell to live, so it is important that the drugs used against the parasite have easy access to the cell. The lipophilicity of a compound is an important physicochemical property to determine its ability to permeate the biological membrane through passive diffusion; which usually is measured from the distribution coefficient logD7.4 = log(Co/Cw), in n-octanol/water. The shake-flask method was used to determine the LogD7.4 values from the molar extinction coefficients of the coordination compounds and the ligands in the two solvents (Table 3).

The values below come from publication PMC11001709, “Anti-toxoplasma activity and DNA-binding of copper(II) and zinc(II) coordination compounds with 5-nitroimidazole-based ligands” (Journal of Biological Inorganic Chemistry, 2023).

Consider `Cc1ncc([N+](=O)[O-])n1CCCl.Cc1ncc([N+](=O)[O-])n1CCCl.[Br][Zn][Br]` [[Zn(cenz)2Br2]], for which, in the data set with ct-DNA [1], the “Hoechst 33258 Ksv” value stood at 120000 M⁻¹. Moreover, the “effect on CD spectrum of ct-DNA (bands at 275 and 245 nm)” value (“effect on CD spectrum of ct-DNA” for short) with ct-DNA [2] is reported as “spectra changes are minor”. Further, in data set [3], the LogD7.4 stood at 0.82.

Turning to `Cc1ncc([N+](=O)[O-])n1CCCl.Cc1ncc([N+](=O)[O-])n1CCCl.[Br][Cu][Br]` [[Cu(cenz)2Br2]], in the data set on ct-DNA [1], the “Hoechst 33258 Ksv” value came to 2.1e+06 M⁻¹. In the data set with ct-DNA [2], the “effect on CD spectrum of ct-DNA” value is “decrease of the intensity of the positive and negative bands”. In data set [3], the LogD7.4 turned out to be 0.62.

On to `Cc1ncc([N+](=O)[O-])n1CC(O)CCl.Cc1ncc([N+](=O)[O-])n1CC(O)CCl.[Cl-].[Cl-].[Cu+2]` (stereo not drawn) [[Cu(onz)2Cl2]], for which the “Hoechst 33258 Ksv” value in the data set with ct-DNA [1] stood at 1.2e+06 M⁻¹. The “effect on CD spectrum of ct-DNA” value in the data set on ct-DNA [2] is “decrease of the intensity of the positive and negative bands”. Moreover, the LogD7.4 in data set [3] was 0.61.

`Cc1n(CC(O)CCl)c([N+](=O)[O-])c[n+]1[Cu-2]([Br])([Br])[n+]1cc([N+](=O)[O-])n(CC(O)CCl)c1C` (stereo not drawn) [[Cu(onz)2Br2]]: in the data set on ct-DNA [1], the “Hoechst 33258 Ksv” value amounted to 2.5e+06 M⁻¹. In the data set with ct-DNA [2], the “effect on CD spectrum of ct-DNA” value is “decrease of the intensity of the positive and negative bands”. The compound further gave a LogD7.4 in data set [3] of 0.56.

For `Cc1ncc([N+](=O)[O-])n1CC(O)CCl.Cc1ncc([N+](=O)[O-])n1CC(O)CCl.[Cl][Zn][Cl]` (stereo not drawn) [[Zn(onz)2Cl2]], in the data set with ct-DNA [1], the “Hoechst 33258 Ksv” value came to 38000 M⁻¹. For the same compound, the “effect on CD spectrum of ct-DNA” value in the data set with ct-DNA [2] is given as “spectra changes are minor”. In data set [3], this compound gave a LogD7.4 of 0.90.

`Cc1ncc([N+](=O)[O-])n1CCCl.Cc1ncc([N+](=O)[O-])n1CCCl.[Cl][Cu][Cl]` [[Cu(cenz)2Cl2]]: in the data set on ct-DNA [1], the “Hoechst 33258 Ksv” value was 1.6e+06 M⁻¹. The “effect on CD spectrum of ct-DNA” value in the data set with ct-DNA [2] is “decrease of the intensity of the positive and negative bands”. In data set [3], this compound had a LogD7.4 of 0.69.
